According to the kinase profiling compilation of Christmann-Franck et al. (2016):

Legend:
Test in all cases: KINOMEscan competition binding
Conditions in all cases: compound 10.0 µM
[1] = target: RPS6KA2 KD1 (human) (UniProt Q15349)
[2] = target: PRKD1 (human) (UniProt Q15139)
[3] = target: CDKL2 (human) (UniProt Q92772)
[4] = target: ADCK3 (human) (UniProt Q8NI60)
[5] = target: LYN (human) (UniProt P07948)
[6] = system: EGFR (human), P00533 [752-759 del]
[7] = target: DCLK1 (human) (UniProt O15075)
[8] = target: PRKCI (human) (UniProt P41743)
[9] = system: EGFR (human), P00533 [747-751 del / S ins]
[10] = target: AAK1 (human) (UniProt Q2M2I8)
[11] = target: CDK4 CCND1 (human) (UniProt P11802+P24385)
[12] = target: SYK (human) (UniProt P43405)
[13] = target: NEK3 (human) (UniProt P51956)
[14] = target: NUAK2 (human) (UniProt Q9H093)
[15] = target: CDK18 (human) (UniProt Q07002)
[16] = target: PAK7 (human) (UniProt Q9P286)
[17] = target: RET (human) (UniProt P07949)
[18] = target: STK33 (human) (UniProt Q9BYT3)
[19] = system: RET (human), P07949 [M918T]
[20] = target: INSR (human) (UniProt P06213)
[21] = target: CDK17 (human) (UniProt Q00537)
[22] = target: TSSK1B (human) (UniProt Q9BXA7)
[23] = target: SIK3 (human) (UniProt Q9Y2K2)
[24] = target: RPS6KA5 KD1 (human) (UniProt O75582)
[25] = target: MAPK9 (human) (UniProt P45984)
[26] = target: CDK11B (human) (UniProt P21127)
[27] = target: PLK1 (human) (UniProt P53350)
[28] = target: HIPK4 (human) (UniProt Q8NE63)
[29] = target: ERBB4 (human) (UniProt Q15303)
[30] = target: MAP2K2 (human) (UniProt P36507)
[31] = target: MAPK6 (human) (UniProt Q16659)
[32] = target: SRC (human) (UniProt P12931)
[33] = target: MAPK1 (human) (UniProt P28482)
[34] = target: NEK6 (human) (UniProt Q9HC98)
[35] = target: ERBB2 (human) (UniProt P04626)
[36] = target: EPHA3 (human) (UniProt P29320)
[37] = target: PRKG1 (human) (UniProt Q13976)
[38] = target: STK39 (human) (UniProt Q9UEW8)
[39] = target: MAST1 (human) (UniProt Q9Y2H9)
[40] = target: CDK8 (human) (UniProt P49336)

PRKG1 (human), sequence (Q13976 whole entry, looked up): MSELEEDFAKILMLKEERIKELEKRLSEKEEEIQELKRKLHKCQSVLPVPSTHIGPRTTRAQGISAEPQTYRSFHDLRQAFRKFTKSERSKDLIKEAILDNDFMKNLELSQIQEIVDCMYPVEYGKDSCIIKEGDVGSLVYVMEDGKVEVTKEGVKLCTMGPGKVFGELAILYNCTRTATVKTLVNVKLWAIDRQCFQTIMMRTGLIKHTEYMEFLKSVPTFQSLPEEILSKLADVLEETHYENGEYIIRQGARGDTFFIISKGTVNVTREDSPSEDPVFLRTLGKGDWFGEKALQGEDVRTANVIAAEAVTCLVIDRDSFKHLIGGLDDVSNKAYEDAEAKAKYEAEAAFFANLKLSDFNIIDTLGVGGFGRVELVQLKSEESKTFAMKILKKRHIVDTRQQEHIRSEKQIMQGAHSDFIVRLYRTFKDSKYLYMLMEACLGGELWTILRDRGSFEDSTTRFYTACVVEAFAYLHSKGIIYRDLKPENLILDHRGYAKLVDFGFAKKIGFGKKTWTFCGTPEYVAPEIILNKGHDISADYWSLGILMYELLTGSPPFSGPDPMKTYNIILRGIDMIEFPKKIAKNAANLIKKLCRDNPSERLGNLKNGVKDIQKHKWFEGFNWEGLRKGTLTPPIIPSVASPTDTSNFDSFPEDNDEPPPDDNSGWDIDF
HIPK4 (human), sequence (Q8NE63 whole entry, looked up): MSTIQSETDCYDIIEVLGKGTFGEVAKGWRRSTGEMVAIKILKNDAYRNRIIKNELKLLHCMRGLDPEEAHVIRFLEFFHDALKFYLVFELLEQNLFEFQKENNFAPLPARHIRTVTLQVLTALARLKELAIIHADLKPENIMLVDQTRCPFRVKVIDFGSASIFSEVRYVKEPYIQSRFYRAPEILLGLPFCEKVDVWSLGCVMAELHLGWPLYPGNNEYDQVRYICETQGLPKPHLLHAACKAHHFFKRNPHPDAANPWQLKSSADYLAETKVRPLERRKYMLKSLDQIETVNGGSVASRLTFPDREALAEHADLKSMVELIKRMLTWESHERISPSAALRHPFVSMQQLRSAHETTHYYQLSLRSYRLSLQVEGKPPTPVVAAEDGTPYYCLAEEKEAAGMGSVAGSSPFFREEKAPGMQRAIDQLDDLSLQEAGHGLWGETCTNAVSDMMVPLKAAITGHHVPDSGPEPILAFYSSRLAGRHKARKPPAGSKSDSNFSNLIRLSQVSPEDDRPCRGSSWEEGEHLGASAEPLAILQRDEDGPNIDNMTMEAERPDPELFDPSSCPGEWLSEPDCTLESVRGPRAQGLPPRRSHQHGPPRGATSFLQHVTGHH
PRKD1 (human), sequence (Q15139 whole entry, looked up): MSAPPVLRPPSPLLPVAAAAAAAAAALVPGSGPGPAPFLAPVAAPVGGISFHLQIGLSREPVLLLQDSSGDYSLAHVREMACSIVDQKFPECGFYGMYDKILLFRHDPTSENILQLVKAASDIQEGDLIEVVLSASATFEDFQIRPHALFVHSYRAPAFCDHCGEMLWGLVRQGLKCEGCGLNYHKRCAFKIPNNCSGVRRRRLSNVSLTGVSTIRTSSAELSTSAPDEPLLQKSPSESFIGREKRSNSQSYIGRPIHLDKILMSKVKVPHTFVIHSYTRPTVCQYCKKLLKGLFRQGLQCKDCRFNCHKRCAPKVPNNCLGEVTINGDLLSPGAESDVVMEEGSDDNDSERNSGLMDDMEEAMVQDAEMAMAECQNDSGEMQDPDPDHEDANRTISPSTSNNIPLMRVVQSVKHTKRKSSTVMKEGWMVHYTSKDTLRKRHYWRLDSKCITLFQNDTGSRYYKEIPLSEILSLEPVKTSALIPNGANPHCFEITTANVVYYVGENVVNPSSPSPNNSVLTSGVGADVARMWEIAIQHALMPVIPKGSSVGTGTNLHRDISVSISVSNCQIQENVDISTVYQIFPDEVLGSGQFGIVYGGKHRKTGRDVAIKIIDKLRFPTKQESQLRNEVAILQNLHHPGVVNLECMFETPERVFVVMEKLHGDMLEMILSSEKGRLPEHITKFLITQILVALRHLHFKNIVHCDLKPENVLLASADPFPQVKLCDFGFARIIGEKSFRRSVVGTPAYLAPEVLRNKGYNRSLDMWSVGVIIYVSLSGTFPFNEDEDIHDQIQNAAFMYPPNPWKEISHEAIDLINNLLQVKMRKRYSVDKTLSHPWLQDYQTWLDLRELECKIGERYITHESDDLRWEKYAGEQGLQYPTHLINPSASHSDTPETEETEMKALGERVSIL
TSSK1B (human), sequence (Q9BXA7 whole entry, looked up): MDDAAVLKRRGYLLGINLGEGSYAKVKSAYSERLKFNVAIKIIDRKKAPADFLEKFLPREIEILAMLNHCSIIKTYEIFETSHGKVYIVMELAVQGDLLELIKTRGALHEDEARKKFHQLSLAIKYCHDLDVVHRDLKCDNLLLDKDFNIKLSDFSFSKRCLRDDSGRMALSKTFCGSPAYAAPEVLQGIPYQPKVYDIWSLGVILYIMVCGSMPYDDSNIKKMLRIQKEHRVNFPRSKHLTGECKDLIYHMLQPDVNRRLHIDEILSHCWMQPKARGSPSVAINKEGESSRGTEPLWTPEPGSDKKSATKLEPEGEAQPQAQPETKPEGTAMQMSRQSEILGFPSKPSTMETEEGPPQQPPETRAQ
STK33 (human), sequence (Q9BYT3 whole entry, looked up): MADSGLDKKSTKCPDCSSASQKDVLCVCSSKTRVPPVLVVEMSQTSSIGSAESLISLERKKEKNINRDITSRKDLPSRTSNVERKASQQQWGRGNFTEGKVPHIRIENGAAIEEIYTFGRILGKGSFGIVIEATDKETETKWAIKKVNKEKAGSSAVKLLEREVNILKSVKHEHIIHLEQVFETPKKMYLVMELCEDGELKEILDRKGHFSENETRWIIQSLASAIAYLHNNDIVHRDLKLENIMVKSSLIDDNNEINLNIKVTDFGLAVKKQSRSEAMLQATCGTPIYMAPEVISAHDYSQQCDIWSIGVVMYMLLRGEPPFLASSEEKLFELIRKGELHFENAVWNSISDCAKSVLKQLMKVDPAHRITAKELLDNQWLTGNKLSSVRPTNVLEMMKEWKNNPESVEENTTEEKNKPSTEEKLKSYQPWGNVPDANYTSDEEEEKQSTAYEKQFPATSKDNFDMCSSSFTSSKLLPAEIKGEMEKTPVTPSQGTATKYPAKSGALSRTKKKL
PLK1 (human), sequence (P53350 whole entry, looked up): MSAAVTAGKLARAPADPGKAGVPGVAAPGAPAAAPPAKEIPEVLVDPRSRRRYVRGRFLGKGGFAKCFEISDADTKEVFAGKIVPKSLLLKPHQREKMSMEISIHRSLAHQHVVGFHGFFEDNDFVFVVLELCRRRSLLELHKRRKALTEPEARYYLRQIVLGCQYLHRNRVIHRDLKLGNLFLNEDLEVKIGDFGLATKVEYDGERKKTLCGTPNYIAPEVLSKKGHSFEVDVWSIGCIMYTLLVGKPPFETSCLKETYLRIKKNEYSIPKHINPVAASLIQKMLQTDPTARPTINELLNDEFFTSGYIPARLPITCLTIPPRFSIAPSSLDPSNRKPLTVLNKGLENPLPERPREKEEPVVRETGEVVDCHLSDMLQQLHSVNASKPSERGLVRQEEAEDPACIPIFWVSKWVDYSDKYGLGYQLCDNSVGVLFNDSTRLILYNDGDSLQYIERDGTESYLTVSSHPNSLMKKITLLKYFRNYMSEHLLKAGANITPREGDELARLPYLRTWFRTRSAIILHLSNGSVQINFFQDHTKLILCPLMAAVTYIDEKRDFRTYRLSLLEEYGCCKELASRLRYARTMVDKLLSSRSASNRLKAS
AAK1 (human), sequence (Q2M2I8 whole entry, looked up): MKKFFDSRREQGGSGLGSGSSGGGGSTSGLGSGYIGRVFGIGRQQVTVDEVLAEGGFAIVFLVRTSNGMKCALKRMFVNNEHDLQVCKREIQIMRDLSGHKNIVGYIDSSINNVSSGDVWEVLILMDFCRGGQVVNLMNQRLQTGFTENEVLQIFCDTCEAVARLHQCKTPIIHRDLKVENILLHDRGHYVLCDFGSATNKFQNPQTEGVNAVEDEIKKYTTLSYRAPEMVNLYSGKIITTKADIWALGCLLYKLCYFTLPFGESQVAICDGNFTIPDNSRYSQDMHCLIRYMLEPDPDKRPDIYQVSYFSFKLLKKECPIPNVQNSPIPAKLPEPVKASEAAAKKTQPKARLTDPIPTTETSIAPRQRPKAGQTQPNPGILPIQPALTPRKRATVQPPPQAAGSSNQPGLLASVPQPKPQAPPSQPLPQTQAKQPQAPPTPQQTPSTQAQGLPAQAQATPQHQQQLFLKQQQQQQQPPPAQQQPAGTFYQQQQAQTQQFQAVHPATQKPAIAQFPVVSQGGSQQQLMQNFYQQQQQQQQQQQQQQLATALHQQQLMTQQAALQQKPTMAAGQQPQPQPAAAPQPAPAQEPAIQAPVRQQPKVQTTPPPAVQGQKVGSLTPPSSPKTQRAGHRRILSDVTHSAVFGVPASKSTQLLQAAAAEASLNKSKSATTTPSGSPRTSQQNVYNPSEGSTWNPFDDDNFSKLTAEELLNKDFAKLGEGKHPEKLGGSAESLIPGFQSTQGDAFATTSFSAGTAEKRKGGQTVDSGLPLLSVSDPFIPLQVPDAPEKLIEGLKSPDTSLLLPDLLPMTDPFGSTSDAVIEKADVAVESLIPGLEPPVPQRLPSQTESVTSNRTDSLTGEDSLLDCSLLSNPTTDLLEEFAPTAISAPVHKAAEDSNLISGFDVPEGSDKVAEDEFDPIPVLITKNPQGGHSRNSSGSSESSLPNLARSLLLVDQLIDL
NEK6 (human), sequence (Q9HC98 whole entry, looked up): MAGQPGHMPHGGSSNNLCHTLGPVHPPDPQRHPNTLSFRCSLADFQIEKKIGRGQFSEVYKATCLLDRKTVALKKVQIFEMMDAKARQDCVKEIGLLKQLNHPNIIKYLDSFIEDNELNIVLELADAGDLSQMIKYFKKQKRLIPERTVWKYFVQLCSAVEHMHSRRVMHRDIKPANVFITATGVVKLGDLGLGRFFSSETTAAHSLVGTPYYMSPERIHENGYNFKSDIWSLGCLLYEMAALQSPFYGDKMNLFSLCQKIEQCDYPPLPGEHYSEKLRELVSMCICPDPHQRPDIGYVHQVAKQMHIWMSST

SMILES	kinase still bound, per cent of control [1] [%]	kinase still bound, per cent of control [2] [%]	kinase still bound, per cent of control [3] [%]	kinase still bound, per cent of control [4] [%]	kinase still bound, per cent of control [5] [%]	kinase still bound, per cent of control [6] [%]	kinase still bound, per cent of control [7] [%]	kinase still bound, per cent of control [8] [%]	kinase still bound, per cent of control [9] [%]	kinase still bound, per cent of control [10] [%]	kinase still bound, per cent of control [11] [%]	kinase still bound, per cent of control [12] [%]	kinase still bound, per cent of control [13] [%]	kinase still bound, per cent of control [14] [%]	kinase still bound, per cent of control [15] [%]	kinase still bound, per cent of control [16] [%]	kinase still bound, per cent of control [17] [%]	kinase still bound, per cent of control [18] [%]	kinase still bound, per cent of control [19] [%]	kinase still bound, per cent of control [20] [%]	other results
O=C(Nc1cccc(Nc2ncc(Br)c(NCCc3cnc[nH]3)n2)c1)N1CCCC1	7.6	0.65	4.7	100	24	66	35	45	67	3.1	0.25	0.95	6.8	3.8	100	1.6	0.1	0.8	0.05	27	kinase still bound, per cent of control [21]: 77%; kinase still bound, per cent of control [22]: 48%; kinase still bound, per cent of control [23]: 7%; kinase still bound, per cent of control [24]: 57%; kinase still bound, per cent of control [25]: 0.3%; kinase still bound, per cent of control [26]: 66%; kinase still bound, per cent of control [27]: 41%; kinase still bound, per cent of control [28]: 2%; kinase still bound, per cent of control [29]: 56%; kinase still bound, per cent of control [30]: 0.2%; kinase still bound, per cent of control [31]: 5%; kinase still bound, per cent of control [32]: 4%; kinase still bound, per cent of control [33]: 77%; kinase still bound, per cent of control [34]: 0.5%; kinase still bound, per cent of control [35]: 88%; kinase still bound, per cent of control [36]: 21%; kinase still bound, per cent of control [37]: 72%; kinase still bound, per cent of control [38]: 63%; kinase still bound, per cent of control [39]: 58%; kinase still bound, per cent of control [40]: 97%
O=c1cc(N2CCOCC2)oc2c(-c3cccc4c3sc3ccccc34)cccc12	97	98	96	72	95	100	84	100	100	87	100	100	100	100	100	96	100	100	98	66	kinase still bound, per cent of control [21]: 100%; kinase still bound, per cent of control [22]: 83%; kinase still bound, per cent of control [23]: 92%; kinase still bound, per cent of control [24]: 100%; kinase still bound, per cent of control [25]: 39%; kinase still bound, per cent of control [26]: 95%; kinase still bound, per cent of control [27]: 94%; kinase still bound, per cent of control [28]: 74%; kinase still bound, per cent of control [29]: 92%; kinase still bound, per cent of control [30]: 97%; kinase still bound, per cent of control [31]: 100%; kinase still bound, per cent of control [32]: 90%; kinase still bound, per cent of control [33]: 95%; kinase still bound, per cent of control [34]: 100%; kinase still bound, per cent of control [35]: 100%; kinase still bound, per cent of control [36]: 91%; kinase still bound, per cent of control [37]: 100%; kinase still bound, per cent of control [38]: 100%; kinase still bound, per cent of control [39]: 100%; kinase still bound, per cent of control [40]: 100%
CN(C)C/C=C/C(=O)Nc1ccc(C(=O)Nc2cccc(Nc3nccc(-c4cccnc4)n3)c2)cc1	83	100	33	100	100	88	98	100	87	5.2	100	23	17	30	95	52	79	100	70	74	kinase still bound, per cent of control [21]: 92%; kinase still bound, per cent of control [22]: 100%; kinase still bound, per cent of control [23]: 64%; kinase still bound, per cent of control [24]: 100%; kinase still bound, per cent of control [25]: 2.5%; kinase still bound, per cent of control [26]: 91%; kinase still bound, per cent of control [27]: 100%; kinase still bound, per cent of control [28]: 8.6%; kinase still bound, per cent of control [29]: 100%; kinase still bound, per cent of control [30]: 87%; kinase still bound, per cent of control [31]: 7.4%; kinase still bound, per cent of control [32]: 100%; kinase still bound, per cent of control [33]: 77%; kinase still bound, per cent of control [34]: 2.8%; kinase still bound, per cent of control [35]: 97%; kinase still bound, per cent of control [36]: 73%; kinase still bound, per cent of control [37]: 100%; kinase still bound, per cent of control [38]: 58%; kinase still bound, per cent of control [39]: 100%; kinase still bound, per cent of control [40]: 78%
